Results on 13 compounds are retold here after patent publication US9688699B2, “3-(pyrimidine-2-yl)imidazo[1,2-a]pyridines” (Bayer Pharma Aktiengesellschaft, priority 2014, dated 2017).

Where a name gives a salt, the structure may show the parent alone.

Assay [1] concerns the target T1, recombinant guanylate cyclase reporter cell line (Rattus norvegicus, UniProt P19686+P20595).
T1 construct: expressed in transfected cells
T1 sequence (P19686 1-690): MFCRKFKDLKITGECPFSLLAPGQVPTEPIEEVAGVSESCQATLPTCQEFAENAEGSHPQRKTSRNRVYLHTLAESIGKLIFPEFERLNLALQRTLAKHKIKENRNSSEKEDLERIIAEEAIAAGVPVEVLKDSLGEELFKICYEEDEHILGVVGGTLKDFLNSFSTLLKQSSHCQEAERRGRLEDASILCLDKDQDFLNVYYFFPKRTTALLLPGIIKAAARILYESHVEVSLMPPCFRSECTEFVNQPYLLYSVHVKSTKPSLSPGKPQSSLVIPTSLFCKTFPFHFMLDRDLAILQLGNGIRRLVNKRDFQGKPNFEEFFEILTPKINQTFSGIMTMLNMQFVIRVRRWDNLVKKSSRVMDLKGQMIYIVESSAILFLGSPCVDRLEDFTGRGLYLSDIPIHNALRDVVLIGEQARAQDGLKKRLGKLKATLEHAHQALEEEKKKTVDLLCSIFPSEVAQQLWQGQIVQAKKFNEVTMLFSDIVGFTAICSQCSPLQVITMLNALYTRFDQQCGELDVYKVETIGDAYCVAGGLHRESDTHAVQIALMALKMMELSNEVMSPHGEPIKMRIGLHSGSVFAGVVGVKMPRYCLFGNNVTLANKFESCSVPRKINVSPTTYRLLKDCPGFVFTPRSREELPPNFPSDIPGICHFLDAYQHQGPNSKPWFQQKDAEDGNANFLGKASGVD
T1 sequence (P20595 1-619): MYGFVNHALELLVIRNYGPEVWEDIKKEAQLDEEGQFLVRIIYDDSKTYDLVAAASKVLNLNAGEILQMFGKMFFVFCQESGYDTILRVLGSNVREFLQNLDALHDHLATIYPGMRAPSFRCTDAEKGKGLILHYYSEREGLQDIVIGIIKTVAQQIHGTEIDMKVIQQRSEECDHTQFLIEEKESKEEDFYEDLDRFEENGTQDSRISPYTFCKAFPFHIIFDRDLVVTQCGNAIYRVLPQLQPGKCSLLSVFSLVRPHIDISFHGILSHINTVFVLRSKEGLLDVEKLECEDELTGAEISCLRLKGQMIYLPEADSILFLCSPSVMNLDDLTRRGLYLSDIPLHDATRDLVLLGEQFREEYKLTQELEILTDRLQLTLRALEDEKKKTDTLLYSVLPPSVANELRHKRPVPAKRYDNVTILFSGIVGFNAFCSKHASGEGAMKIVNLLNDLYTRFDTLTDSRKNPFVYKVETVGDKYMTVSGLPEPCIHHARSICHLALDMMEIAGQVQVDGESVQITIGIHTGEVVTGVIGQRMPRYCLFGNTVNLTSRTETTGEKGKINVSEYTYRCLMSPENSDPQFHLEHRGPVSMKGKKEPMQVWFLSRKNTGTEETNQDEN
Description: Effect on a recombinant guanylate cyclase reporter cell line (B-2). In kind it is cell-based. The note with it: MEC = minimum effective concentration, in some cases mean values for individual determinations. On the procedure: B-2. Effect on a Recombinant Guanylate Cyclase Reporter Cell Line
The cellular activity of the compounds according to the invention is determined using a recombinant guanylate cyclase reporter cell line, as described in F. Wunder et al., Anal. Biochem. 339, 104-112 (2005).
Representative MEC values (MEC=minimum effective concentration) for the compounds of the invention are shown in Table 1 below (in some cases as mean values for individual determinations): […]

Assay [2] concerns the target T2, human phosphodiesterase 5 (PDE 5) (Homo sapiens, UniProt O76074).
T2 construct: PDE 5 preparations are obtained from human platelets by disruption; from tissue; host or cells: human platelets (Mono Q ion exchange fractions with PDE 5 activity)
Description: Inhibition of human phosphodiesterase 5 (PDE 5) (B-3). Type of assay: biochemical. Particulars: PDE 5 preparation from human platelets; [8-3H] cGMP substrate, SPA; in some cases means of individual determinations. As for the experimental part: B-3. Inhibition of Human Phosphodiesterase 5 (PDE 5)
PDE 5 preparations are obtained from human platelets by disruption (Microfluidizer®, 800 bar, 3 passes), followed by centrifugation (75 000 g, 60 min, 4° C.) and ion exchange chromatography of the supernatant on a Mono Q 10/10 column (linear sodium chloride gradient, elution with a 0.2-0.3M solution of sodium chloride in buffer (20 mM Hepes pH 7.2, 2 mM magnesium chloride). Fractions having PDE 5 activity are combined (PDE 5 preparation) and stored at −80° C.
To determine their in vitro action on human PDE 5, the test substances are dissolved in 100% DMSO and serially diluted. Typically, dilution series (1:3) from 200 μM to 0.091 μM are prepared (resulting final concentrations in the test: 4 μM to 0.0018 μM). In each case 2 μl of the diluted substance solutions are placed into the wells of microtitre plates (Isoplate-96/200 W; Perkin Elmer). Subsequently, 50 μl of a dilution of the above-described PDE 5 preparation are added. The dilution of the PDE 5 preparation is chosen such that during the later incubation less than 70% of the substrate are converted (typical dilution: 1:100; dilution buffer: 50 mM tris/hydrochloric acid pH 7.5, 8.3 mM magnesium chloride, 1.7 mM EDTA, 0.2% BSA). The substrate, [8-^3H] cyclic guanosine-3′,5′-monophosphate (1 μCi/μl; Perkin Elmer), is diluted 1:2000 with assay buffer (50 mM tris/hydrochloric acid pH 7.5, 8.3 mM magnesium chloride, 1.7 mM EDTA) to a concentration of 0.0005 μCi/μl. By addition of 50 μl (0.025 μCi) of the diluted substrate, the enzyme reaction is finally started. The test mixtures are incubated at room temperature for 60 min and the reaction is stopped by adding 25 μl of a suspension of 18 mg/ml yttrium scintillation proximity beads in water (phosphodiesterase beads for SPA assays, RPNQ 0150, Perkin Elmer). The microtitre plates are sealed with a film and left to stand at room temperature for 60 min. Subsequently, the plates are analysed for 30 s per well in a Microbeta scintillation counter (Perkin Elmer). IC50 values are determined using the graphic plot of the substance concentration against percentage PDE 5 inhibition.

In general, IC50 refers to the concentration that inhibits the measured activity by half. A higher IC50 goes with a need for much substance. With `Cc1nc2c(OCc3c(F)cccc3F)cccn2c1-c1nc2c(c(Oc3cn[nH]c3)n1)C(C)(C)C(=O)N2` [Example 44, 2-{8-[(2,6-Difluorobenzyl)oxy]-2-methylimidazo[1,2-a]pyridin-3-yl}-5,5-dimethyl-4-(1H-pyrazol-4-yloxy)-5,7-dihydro-6H-pyrrolo[2,3-d]pyrimidin-6-one], in assay [1], the MEC came out at 1 µM. Moreover, half-maximal inhibition in assay [2] (IC50) was put at 1.5 nM. As for `Cc1nc2c(OCc3c(F)cccc3F)cccn2c1-c1nc(NCC(O)C(F)(F)F)c2c(n1)NC(=O)C2(C)C` (racemic) [Example 18, rac-2-{8-[(2,6-difluorobenzyl)oxy]-2-methylimidazo[1,2-a]pyridin-3-yl}-5,5-dimethyl-4-[(3,3,3-trifluoro-2-hydroxypropyl)amino]-5,7-dihydro-6H-pyrrolo[2,3-d]pyrimidin-6-one], in assay [1], the MEC was 1 µM. This compound also came in with an IC50 in assay [2] of 19 nM. The matching figures for `Cc1nc2c(OCc3c(F)ccc(F)c3F)cccn2c1-c1nc2c(c(C(=O)O)n1)C(C)(C)C(=O)N2` [Example 54, 5,5-Dimethyl-2-{2-methyl-8-[(2,3,6-trifluorobenzyl)oxy]imidazo[1,2-a]pyridin-3-yl}-6-oxo-6,7-dihydro-5H-pyrrolo[2,3-d]pyrimidine-4-carboxylic acid]: 10 µM and 420 nM.

For `Cc1nc2c(OCc3c(F)cccc3F)cccn2c1-c1nc(NCCC(F)(F)F)c2c(n1)NC(=O)C2(C)C` [Example 19, 2-{8-[(2,6-difluorobenzyl)oxy]-2-methylimidazo[1,2-a]pyridin-3-yl}-5,5-dimethyl-4-[(3,3,3-trifluoropropyl)amino]-5,7-dihydro-6H-pyrrolo[2,3-d]pyrimidin-6-one], in assay [1], the MEC worked out at 1 µM. For the same compound, the midpoint of inhibition in assay [2], the IC50, lay at 7.1 nM. Consider `Cc1nc2c(OCc3c(F)ccc(F)c3F)cccn2c1-c1nc2c(c(C(N)=O)n1)C(C)(C)C(=O)N2` [Example 53, 5,5-Dimethyl-2-{2-methyl-8-[(2,3,6-trifluorobenzyl)oxy]imidazo[1,2-a]pyridin-3-yl}-6-oxo-6,7-dihydro-5H-pyrrolo[2,3-d]pyrimidine-4-carboxamide], for which the MEC in assay [1] was 0.3 µM. The IC50 in assay [2] was 4.3 nM.

With `Cc1nc2c(OCc3c(F)ccc(F)c3F)cccn2c1-c1nc2c(c(C(=O)N3CCC(O)C3)n1)C(C)(C)C(=O)N2` (racemic) [Example 62, rac-4-[(3-hydroxypyrrolidin-1-yl)carbonyl]-5,5-dimethyl-2-{2-methyl-8-[(2,3,6-trifluorobenzyl)oxy]imidazo[1,2-a]pyridin-3-yl}-5,7-dihydro-6H-pyrrolo[2,3-d]pyrimidin-6-one], the MEC in assay [1] was determined as 3 µM. For the same compound, in assay [2], it took 400 nM to reach half-maximal inhibition (IC50). As for `Cc1nc2c(OCc3c(F)cccc3F)cccn2c1-c1nc2c(c(N[C@H]3CC[C@H](O)CC3)n1)C(C)(C)C(=O)N2` [Example 15, 2-{8-[(2,6-Difluorobenzyl)oxy]-2-methylimidazo[1,2-a]pyridin-3-yl}-4-[(trans-4-hydroxycyclohexyl)amino]-5,5-dimethyl-5,7-dihydro-6H-pyrrolo[2,3-d]pyrimidin-6-one], the MEC in assay [1] was 3 µM. In assay [2], it took 2.5 nM to reach half-maximal inhibition (IC50).

On to `Cc1nc2c(OCc3c(F)cccc3F)cccn2c1-c1nc(NCC2(N)CC2)c2c(n1)NC(=O)C2(C)C` [Example 42, 4-{[(1-Aminocyclopropyl)methyl]amino}-2-{8-[(2,6-difluorobenzyl)oxy]-2-methylimidazo[1,2-a]pyridin-3-yl}-5,5-dimethyl-5,7-dihydro-6H-pyrrolo[2,3-d]pyrimidin-6-one], for which the MEC in assay [1] was 0.1 µM. The IC50 in assay [2] was 6 nM. For `Cc1nc2c(OCc3c(F)ccc(F)c3F)cccn2c1-c1nc2c(c(C(=O)N3CCNCC3)n1)C(C)(C)C(=O)N2` [Example 64, 5,5-dimethyl-2-{2-methyl-8-[(2,3,6-trifluorobenzyl)oxy]imidazo[1,2-a]pyridin-3-yl}-4-(piperazin-1-ylcarbonyl)-5,7-dihydro-6H-pyrrolo[2,3-d]pyrimidin-6-one trifluoroacetate], in that order: 10 µM and 28 nM. For `COCC(C)(N)CNc1nc(-c2c(C)nc3c(OCc4c(F)cccc4F)cccn23)nc2c1C(C)(C)C(=O)N2` (single isomer, unassigned; ent-4) [Example 46, ent-4-[(2-Amino-3-methoxy-2-methylpropyl)amino]-2-{8-[(2,6-difluorobenzyl)oxy]-2-methylimidazo[1,2-a]pyridin-3-yl}-5,5-dimethyl-5,7-dihydro-6H-pyrrolo[2,3-d]pyrimidin-6-one (Enantiomer B)], in that order: 1 µM and 120 nM. For `Cc1nc2c(OCc3c(F)cccc3F)cccn2c1-c1nc2c(c(NC3CC(O)C3)n1)C(C)(C)C(=O)N2` (mixture of isomers) [Example 30, 2-{8-[(2,6-difluorobenzyl)oxy]-2-methylimidazo[1,2-a]pyridin-3-yl}-4-[(3-hydroxycyclobutyl)amino]-5,5-dimethyl-5,7-dihydro-6H-pyrrolo[2,3-d]pyrimidin-6-one [cis/trans mixture]], in that order: 1 µM and 3.6 nM. Turning to `CCCc1nc(-c2c(C)nc3c(OCc4c(F)ccc(F)c4F)cccn23)nc2c1C(C)(C)C(=O)N2` [Example 72, 5,5-Dimethyl-2-{2-methyl-8-[(2,3,6-trifluorobenzyl)oxy]imidazo[1,2-a]pyridin-3-yl}-4-propyl-5,7-dihydro-6H-pyrrolo[2,3-d]pyrimidin-6-one], the MEC in assay [1] was 3 µM.

As to `Cc1nc2c(OCc3c(F)cccc3F)cccn2c1-c1nc2c(c(OCCO)n1)C(C)(C)C(=O)N2` [Example 47, 2-{8-[(2,6-Difluorobenzyl)oxy]-2-methylimidazo[1,2-a]pyridin-3-yl}-4-(2-hydroxyethoxy)-5,5-dimethyl-5,7-dihydro-6H-pyrrolo[2,3-d]pyrimidin-6-one], the MEC in assay [1] is 0.3 µM.
